This is an account of results in patent US5416191A, “Bradykinin antagonists” (Cortech, Inc., priority 1993, dated 1995).

Read-outs that look alike come from different tables or passages of the source. Peptide text beside a SMILES is read from it.

Test [1] deals with T1, bradykinin receptor of the B2 class (rat uterus) (Rattus norvegicus, UniProt P25023).
T1 construct: concentration effect curves to bradykinin (BK) on rat uterus in vitro; from tissue; host or cells: rat uterus
T1 sequence (P25023 1-396): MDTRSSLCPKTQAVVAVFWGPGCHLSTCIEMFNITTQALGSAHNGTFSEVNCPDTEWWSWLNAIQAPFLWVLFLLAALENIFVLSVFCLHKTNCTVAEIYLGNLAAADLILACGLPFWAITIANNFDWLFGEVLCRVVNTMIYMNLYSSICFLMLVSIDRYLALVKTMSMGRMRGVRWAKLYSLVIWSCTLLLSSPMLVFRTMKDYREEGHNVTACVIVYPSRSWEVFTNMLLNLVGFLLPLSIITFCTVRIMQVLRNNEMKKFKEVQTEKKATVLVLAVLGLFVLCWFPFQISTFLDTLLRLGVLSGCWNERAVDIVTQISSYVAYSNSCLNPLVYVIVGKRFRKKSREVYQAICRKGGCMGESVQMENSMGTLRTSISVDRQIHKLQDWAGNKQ
Briefly: Rat uterus (RU) in vitro, antagonism of bradykinin. The settings on record: for pA2 MONOMER: P.A. = Partial Agonist. Here is the method:
Thus in vitro studies were performed on standard assay systems, namely, guinea-pig ileum (GPI), rat uterus (RU) and rabbit jugular vein (RJV). […] The PA2 can be defined as the negative logarithm of the molar concentration of the antagonist in the presence of which the potency of the agonist is reduced two-fold, i.e. twice the amount of agonist is required to produce a given response in the presence of, than in the absence of, the antagonist. A high potency of antagonism is indicated by a high PA2 value, i.e., a low concentration of antagonist is effective.
The percentage recovery (% Rec) was also determined for compounds with respect to each assay.
With respect to duration of activity, it is noted that after exposure to the highest concentration of antagonist, each tissue was washed extensively and then assessed for recovery from the antagonist effect.
Potency in the rat uterus assay was assessed as described above and PA2 values determined.

Test [2] deals with T2, bradykinin receptor of the B2 class (guinea-pig ileum) (Cavia porcellus, UniProt O70526).
T2 sequence (O70526 1-372): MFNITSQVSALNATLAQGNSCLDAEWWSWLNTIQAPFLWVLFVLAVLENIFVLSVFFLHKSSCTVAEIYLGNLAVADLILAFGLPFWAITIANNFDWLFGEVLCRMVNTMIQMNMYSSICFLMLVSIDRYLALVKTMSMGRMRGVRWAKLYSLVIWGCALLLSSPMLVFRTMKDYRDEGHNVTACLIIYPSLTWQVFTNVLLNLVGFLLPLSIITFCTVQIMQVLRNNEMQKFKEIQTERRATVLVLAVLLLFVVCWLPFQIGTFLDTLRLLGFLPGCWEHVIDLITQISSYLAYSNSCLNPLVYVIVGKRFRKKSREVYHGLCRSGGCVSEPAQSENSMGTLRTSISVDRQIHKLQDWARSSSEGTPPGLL
The settings on record: Table B; Cys position scan, monomers and BMH dimers.

For test [3], the target named is T2, bradykinin receptor of the B2 class (guinea-pig ileum).
Setting [4] is: Table C, rat uterus, read-out: pA2 DIMER (converted).
The mark [5] stands for this setting: Table E, read-out: RAT UTERUS pA2 (converted).

Regarding `CC(C)C[C@H](NC(=O)[C@@H](Cc1ccccc1)NC(=O)[C@H](CO)NC(=O)[C@H](Cc1ccccc1)NC(=O)[C@H](CS)NC(=O)[C@@H]1C[C@@H](O)CN1C(=O)[C@@H]1CCCN1C(=O)[C@H](CCCNC(=N)N)NC(=O)[C@H](N)CCCNC(=N)N)C(=O)N[C@@H](CCCNC(=N)N)C(=O)O` [CP-0136] (HELM PEPTIDE1{[dR].R.P.[Hyp].C.F.S.[dF].L.R}$$$$V2.0), in test [1] (Table C, rat uterus), the “pA2 MONOMER” value was “Inactive”. Moreover, in test [2], the “pA2 GUINEA PIG ILEUM” value is reported as “Inactive”.

Regarding `CC(C)C[C@H](NC(=O)[C@@H](Cc1ccccc1)NC(=O)[C@H](CO)NC(=O)[C@H](Cc1ccccc1)NC(=O)[C@H](CSC1CC(=O)N(CCCCCCN2C(=O)CC(SC[C@H](NC(=O)[C@@H]3C[C@@H](O)CN3C(=O)[C@@H]3CCCN3C(=O)[C@H](CCCNC(=N)N)NC(=O)[C@H](N)CCCNC(=N)N)C(=O)N[C@@H](Cc3ccccc3)C(=O)N[C@@H](CO)C(=O)N[C@H](Cc3ccccc3)C(=O)N[C@@H](CC(C)C)C(=O)N[C@@H](CCCNC(=N)N)C(=O)O)C2=O)C1=O)NC(=O)[C@@H]1C[C@@H](O)CN1C(=O)[C@@H]1CCCN1C(=O)[C@H](CCCNC(=N)N)NC(=O)[C@H](N)CCCNC(=N)N)C(=O)N[C@@H](CCCNC(=N)N)C(=O)O` (stereo partly drawn) [CP-0137] (HELM PEPTIDE1{[dR].R.P.[Hyp].C.F.S.[dF].L.R}|PEPTIDE2{[dR].R.P.[Hyp].C.F.S.[dF].L.R}|CHEM1{[O=C1CC([*:1])C(=O)N1CCCCCCN1C(=O)CC([*:2])C1=O]}$PEPTIDE1,CHEM1,5:R3-1:R1|PEPTIDE2,CHEM1,5:R3-1:R2$$$V2.0), the “pA2 DIMER” value in test [1] (Table C, rat uterus) is reported as “Inactive”. In addition, the “pA2 GUINEA PIG ILEUM” value in test [2] is reported as “Inactive”.

In the case of `CC(C)C[C@H](NC(=O)[C@H](CS)NC(=O)[C@H](CO)NC(=O)[C@H](Cc1ccccc1)NC(=O)CNC(=O)[C@@H]1C[C@@H](O)CN1C(=O)[C@@H]1CCCN1C(=O)[C@H](CCCNC(=N)N)NC(=O)[C@H](N)CCCNC(=N)N)C(=O)N[C@@H](CCCNC(=N)N)C(=O)O` [CP-0145] (HELM PEPTIDE1{[dR].R.P.[Hyp].G.F.S.C.L.R}$$$$V2.0), the “pA2 MONOMER” value in test [1] (Table C, rat uterus) is listed as “Inactive”. Also, the “pA2 GUINEA PIG ILEUM” value in test [2] is given as “Inactive”.

In the case of `CC(C)C[C@H](NC(=O)[C@@H](Cc1ccccc1)NC(=O)[C@H](CO)NC(=O)[C@H](Cc1ccccc1)NC(=O)CNC(=O)[C@H](CSC1CC(=O)N(CCCCCCN2C(=O)CC(SC[C@H](NC(=O)[C@@H]3CCCN3C(=O)[C@H](CCCNC(=N)N)NC(=O)[C@H](N)CCCNC(=N)N)C(=O)NCC(=O)N[C@@H](Cc3ccccc3)C(=O)N[C@@H](CO)C(=O)N[C@H](Cc3ccccc3)C(=O)N[C@@H](CC(C)C)C(=O)N[C@@H](CCCNC(=N)N)C(=O)O)C2=O)C1=O)NC(=O)[C@@H]1CCCN1C(=O)[C@H](CCCNC(=N)N)NC(=O)[C@H](N)CCCNC(=N)N)C(=O)N[C@@H](CCCNC(=N)N)C(=O)O` (stereo partly drawn) [CP-0155] (HELM PEPTIDE1{[dR].R.P.C.G.F.S.[dF].L.R}|PEPTIDE2{[dR].R.P.C.G.F.S.[dF].L.R}|CHEM1{[O=C1CC([*:1])C(=O)N1CCCCCCN1C(=O)CC([*:2])C1=O]}$PEPTIDE1,CHEM1,4:R3-1:R1|PEPTIDE2,CHEM1,4:R3-1:R2$$$V2.0), the “% REC DIMER” value in test [1] (Table C, rat uterus) is 100%. Besides, the Kb in test [1] (setting [4]) is 0.631 µM; in test [3], roughly 0.0794 µM.

For the compound `CC(C)C[C@H](NC(=O)[C@@H](Cc1ccccc1)NC(=O)[C@H](CO)NC(=O)[C@H](CSC1CC(=O)N(CCCCCCN2C(=O)CC(SC[C@H](NC(=O)CNC(=O)[C@@H]3C[C@@H](O)CN3C(=O)[C@@H]3CCCN3C(=O)[C@H](CCCNC(=N)N)NC(=O)[C@H](N)CCCNC(=N)N)C(=O)N[C@@H](CO)C(=O)N[C@H](Cc3ccccc3)C(=O)N[C@@H](CC(C)C)C(=O)N[C@@H](CCCNC(=N)N)C(=O)O)C2=O)C1=O)NC(=O)CNC(=O)[C@@H]1C[C@@H](O)CN1C(=O)[C@@H]1CCCN1C(=O)[C@H](CCCNC(=N)N)NC(=O)[C@H](N)CCCNC(=N)N)C(=O)N[C@@H](CCCNC(=N)N)C(=O)O` (stereo partly drawn) [CP-0156] (HELM PEPTIDE1{[dR].R.P.[Hyp].G.C.S.[dF].L.R}|PEPTIDE2{[dR].R.P.[Hyp].G.C.S.[dF].L.R}|CHEM1{[O=C1CC([*:1])C(=O)N1CCCCCCN1C(=O)CC([*:2])C1=O]}$PEPTIDE1,CHEM1,6:R3-1:R1|PEPTIDE2,CHEM1,6:R3-1:R2$$$V2.0), the “% REC DIMER” value in test [1] (Table C, rat uterus) is listed as 75%. Further, the Kb is 0.00794 µM in test [1] (setting [4]) and roughly 0.0126 µM in test [3].

With `CC(C)C[C@H](NC(=O)[C@@H](Cc1ccccc1)NC(=O)[C@H](CO)NC(=O)[C@H](Cc1ccccc1)NC(=O)CNC(=O)[C@@H]1C[C@@H](O)CN1C(=O)[C@@H]1CCCN1C(=O)[C@H](CCCNC(=N)N)NC(=O)[C@H](N)CSC1CC(=O)N(CCCCCCN2C(=O)CC(SC[C@@H](N)C(=O)N[C@@H](CCCNC(=N)N)C(=O)N3CCC[C@H]3C(=O)N3C[C@H](O)C[C@H]3C(=O)NCC(=O)N[C@@H](Cc3ccccc3)C(=O)N[C@@H](CO)C(=O)N[C@H](Cc3ccccc3)C(=O)N[C@@H](CC(C)C)C(=O)N[C@@H](CCCNC(=N)N)C(=O)O)C2=O)C1=O)C(=O)N[C@@H](CCCNC(=N)N)C(=O)O` (stereo partly drawn) [CP-0161] (HELM PEPTIDE1{[dC].R.P.[Hyp].G.F.S.[dF].L.R}|PEPTIDE2{[dC].R.P.[Hyp].G.F.S.[dF].L.R}|CHEM1{[O=C1CC([*:1])C(=O)N1CCCCCCN1C(=O)CC([*:2])C1=O]}$PEPTIDE1,CHEM1,1:R3-1:R1|PEPTIDE2,CHEM1,1:R3-1:R2$$$V2.0), in test [1] (Table C, rat uterus), the “% REC DIMER” value is reported as 100%. The Kb is 0.316 µM in test [1] (setting [4]) and roughly 0.501 µM in test [3].

Regarding `CC(C)C[C@H](NC(=O)[C@@H](Cc1ccccc1)NC(=O)[C@H](CSC1CC(=O)N(c2ccc(N3C(=O)CC(SC[C@H](NC(=O)[C@H](Cc4ccccc4)NC(=O)CNC(=O)[C@@H]4C[C@@H](O)CN4C(=O)[C@@H]4CCCN4C(=O)[C@H](CCCNC(=N)N)NC(=O)[C@H](N)CCCNC(=N)N)C(=O)N[C@H](Cc4ccccc4)C(=O)N[C@@H](CC(C)C)C(=O)N[C@@H](CCCNC(=N)N)C(=O)O)C3=O)cc2)C1=O)NC(=O)[C@H](Cc1ccccc1)NC(=O)CNC(=O)[C@@H]1C[C@@H](O)CN1C(=O)[C@@H]1CCCN1C(=O)[C@H](CCCNC(=N)N)NC(=O)[C@H](N)CCCNC(=N)N)C(=O)N[C@@H](CCCNC(=N)N)C(=O)O` (stereo partly drawn) [CP-0170] (HELM PEPTIDE1{[dR].R.P.[Hyp].G.F.C.[dF].L.R}|PEPTIDE2{[dR].R.P.[Hyp].G.F.C.[dF].L.R}|CHEM1{[O=C1CC([*:1])C(=O)N1c1ccc(N2C(=O)CC([*:2])C2=O)cc1]}$PEPTIDE1,CHEM1,7:R3-1:R1|PEPTIDE2,CHEM1,7:R3-1:R2$$$V2.0), the “RAT UTERUS % RECOVERED” value in test [1] (Table E) is listed as 100%. In addition, the Kb in test [1] (setting [5]) was 0.1 µM; in test [3] it was roughly 0.501 µM.

In the case of `CC(C)C[C@H](NC(=O)[C@@H](Cc1ccccc1)NC(=O)[C@H](CSC1CC(=O)N(CCN(CCN2C(=O)CC(SC[C@H](NC(=O)[C@H](Cc3ccccc3)NC(=O)CNC(=O)[C@@H]3C[C@@H](O)CN3C(=O)[C@@H]3CCCN3C(=O)[C@H](CCCNC(=N)N)NC(=O)[C@H](N)CCCNC(=N)N)C(=O)N[C@H](Cc3ccccc3)C(=O)N[C@@H](CC(C)C)C(=O)N[C@@H](CCCNC(=N)N)C(=O)O)C2=O)CCN2C(=O)CC(SC[C@H](NC(=O)[C@H](Cc3ccccc3)NC(=O)CNC(=O)[C@@H]3C[C@@H](O)CN3C(=O)[C@@H]3CCCN3C(=O)[C@H](CCCNC(=N)N)NC(=O)[C@H](N)CCCNC(=N)N)C(=O)N[C@H](Cc3ccccc3)C(=O)N[C@@H](CC(C)C)C(=O)N[C@@H](CCCNC(=N)N)C(=O)O)C2=O)C1=O)NC(=O)[C@H](Cc1ccccc1)NC(=O)CNC(=O)[C@@H]1C[C@@H](O)CN1C(=O)[C@@H]1CCCN1C(=O)[C@H](CCCNC(=N)N)NC(=O)[C@H](N)CCCNC(=N)N)C(=O)N[C@@H](CCCNC(=N)N)C(=O)O` (stereo partly drawn) [CP-0176] (HELM PEPTIDE1{[dR].R.P.[Hyp].G.F.C.[dF].L.R}|PEPTIDE2{[dR].R.P.[Hyp].G.F.C.[dF].L.R}|PEPTIDE3{[dR].R.P.[Hyp].G.F.C.[dF].L.R}|CHEM1{[O=C1CC([*:1])C(=O)N1CCN(CCN1C(=O)CC([*:2])C1=O)CCN1C(=O)CC([*:3])C1=O]}$PEPTIDE1,CHEM1,7:R3-1:R1|PEPTIDE2,CHEM1,7:R3-1:R2|PEPTIDE3,CHEM1,7:R3-1:R3$$$V2.0), in test [1] (Table E), the “RAT UTERUS % RECOVERED” value was found to be 50%. Further, the Kb in test [1] (setting [5]) is 0.00251 µM; in test [3], roughly 0.1 µM.
